According to ChEMBL document CHEMBL4308841, “Synthesis, in vitro antiproliferative activity, and kinase inhibitory effects of pyrazole-containing diarylureas and diarylamides” (Eur J Med Chem, 2018):

Key:
HCC 2998 = test: Growth inhibition of human HCC2998 cells incubated for 48 hrs by sulforhodamine B assay; format: functional, cell-based; details: HCC 2998, 48 h
PC-3 [1] = test: Growth inhibition of human PC3 cells assessed as cell growth at 0.1 uM incubated for 48 hrs by sulforhodamine B assay relative to control; format: functional; details: PC-3, 48 h, read-out: Activity
SR [2] = test: Growth inhibition of human SR cells assessed as cell growth at 0.01 uM incubated for 48 hrs by sulforhodamine B assay relative to control; format: functional; details: read-out: Activity
UACC-257 = test: Growth inhibition of human UACC257 cells assessed as cell growth at 1 uM incubated for 48 hrs by sulforhodamine B assay relative to control; format: functional; details: UACC-257, 48 h, read-out: Activity
SK-MEL-2 [3] = test: Growth inhibition of human SK-MEL-2 cells assessed as cell growth at 0.1 uM incubated for 48 hrs by sulforhodamine B assay relative to control; format: functional; details: SK-MEL-2, 48 h, read-out: Activity
U-251 = test: Growth inhibition of human U251 cells assessed as cell growth at 0.1 uM incubated for 48 hrs by sulforhodamine B assay relative to control; format: functional; details: U-251, 48 h, read-out: Activity
IGROV-1 = test: Growth inhibition of human IGROV1 cells assessed as cell growth at 1 uM incubated for 48 hrs by sulforhodamine B assay relative to control; format: functional; details: IGROV-1, 48 h, read-out: Activity
UACC-62 = test: Growth inhibition of human UACC62 cells incubated for 48 hrs by sulforhodamine B assay; format: functional, cell-based; details: UACC-62, 48 h
A549 [4] = test: Growth inhibition of human A549/ATCC cells assessed as cell growth at 0.01 uM incubated for 48 hrs by sulforhodamine B assay relative to control; format: functional; details: A549, 48 h, read-out: Activity
NCI-H522 = test: Growth inhibition of human NCI-H522 cells assessed as cell growth at 1 uM incubated for 48 hrs by sulforhodamine B assay relative to control; format: functional; details: NCI-H522, 48 h, read-out: Activity
SR [5] = test: Growth inhibition of human SR cells assessed as cell growth at 1 uM incubated for 48 hrs by sulforhodamine B assay relative to control; format: functional; details: read-out: Activity
SK-MEL-28 = test: Growth inhibition of human SK-MEL-28 cells assessed as cell growth at 100 uM incubated for 48 hrs by sulforhodamine B assay relative to control; format: functional; details: SK-MEL-28, 48 h, read-out: Activity
MDA-MB-435 = test: Growth inhibition of human MDA-MB-435 cells assessed as cell growth at 100 uM incubated for 48 hrs by sulforhodamine B assay relative to control; format: functional; details: MDA-MB-435, 48 h, read-out: Activity
PC-3 [6] = test: Growth inhibition of human PC3 cells assessed as cell growth at 1 uM incubated for 48 hrs by sulforhodamine B assay relative to control; format: functional; details: PC-3, 48 h, read-out: Activity
SK-MEL-5 [7] = test: Growth inhibition of human SK-MEL-5 cells assessed as cell growth at 0.1 uM incubated for 48 hrs by sulforhodamine B assay relative to control; format: functional; details: SK-MEL-5, 48 h, read-out: Activity
MDA-MB-468 = test: Growth inhibition of human MDA-MB-468 cells assessed as cell growth at 0.1 uM incubated for 48 hrs by sulforhodamine B assay relative to control; format: functional; details: MDA-MB-468, 48 h, read-out: Activity
SK-MEL-5 [8] = test: Growth inhibition of human SK-MEL-5 cells assessed as cell growth at 0.01 uM incubated for 48 hrs by sulforhodamine B assay relative to control; format: functional; details: SK-MEL-5, 48 h, read-out: Activity
HT-29 = test: Growth inhibition of human HT-29 cells assessed as cell growth at 0.01 uM incubated for 48 hrs by sulforhodamine B assay relative to control; format: functional; details: HT-29, 48 h, read-out: Activity
NCI-H23 = test: Growth inhibition of human NCI-H23 cells incubated for 48 hrs by sulforhodamine B assay; format: functional, cell-based; details: NCI-H23, 48 h
786-0 = test: Growth inhibition of human 786-0 cells assessed as cell growth at 100 uM incubated for 48 hrs by sulforhodamine B assay relative to control; format: functional; details: 786-0, 48 h, read-out: Activity
HOP-62 = test: Growth inhibition of human HOP62 cells assessed as cell growth at 100 uM incubated for 48 hrs by sulforhodamine B assay relative to control; format: functional; details: HOP-62, 48 h, read-out: Activity
SN12C = test: Growth inhibition of human SN12C cells assessed as cell growth at 0.01 uM incubated for 48 hrs by sulforhodamine B assay relative to control; format: functional; details: read-out: Activity
MCF7 = test: Growth inhibition of human MCF7 cells assessed as cell growth at 100 uM incubated for 48 hrs by sulforhodamine B assay relative to control; format: functional; details: MCF7, 48 h, read-out: Activity
HL-60(TB) = test: Growth inhibition of human HL-60(TB) cells assessed as cell growth at 0.01 uM incubated for 48 hrs by sulforhodamine B assay relative to control; format: functional; details: HL-60, 48 h, read-out: Activity
LOX IMVI = test: Growth inhibition of human LOXIMVI cells assessed as cell growth at 0.01 uM incubated for 48 hrs by sulforhodamine B assay relative to control; format: functional; details: read-out: Activity
SK-MEL-2 [9] = test: Growth inhibition of human SK-MEL-2 cells assessed as cell growth at 100 uM incubated for 48 hrs by sulforhodamine B assay relative to control; format: functional; details: SK-MEL-2, 48 h, read-out: Activity
NCI-H322M = test: Growth inhibition of human NCI-H322M cells assessed as cell growth at 1 uM incubated for 48 hrs by sulforhodamine B assay relative to control; format: functional; details: read-out: Activity
BT-549 = test: Growth inhibition of human BT549 cells incubated for 48 hrs by sulforhodamine B assay; format: functional, cell-based; details: BT-549, 48 h
A549 [10] = test: Growth inhibition of human A549/ATCC cells assessed as cell growth at 1 uM incubated for 48 hrs by sulforhodamine B assay relative to control; format: functional; details: A549, 48 h, read-out: Activity
PC-3 [11] = test: Growth inhibition of human PC3 cells assessed as cell growth at 0.01 uM incubated for 48 hrs by sulforhodamine B assay relative to control; format: functional; details: PC-3, 48 h, read-out: Activity
OVCAR-5 = test: Growth inhibition of human OVCAR5 cells incubated for 48 hrs by sulforhodamine B assay; format: functional, cell-based; details: OVCAR-5, 48 h
[12] = read-out: LC50 (the source's name)
[13] = read-out: pLC50 (the source's name) (converted)

With `O=C(Nc1cccc(-n2cc(-c3ccncc3)c(-c3cc(O)cc(Cl)c3)n2)c1)c1ccc(N2CCOCC2)c(C(F)(F)F)c1` the GI50 (HCC 2998; read-out: GI50) was 1.52 µM, the CC50 (HCC 2998; [12]) was over 100 µM and the TGI (HCC 2998; read-out: TGI) was 79.5 µM. The GI50 (HCC 2998; read-out: pGI50 (converted)) was 1.82 µM, the CC50 (HCC 2998; [13]) was over 100 µM and the TGI (HCC 2998; read-out: pTGI (converted)) was 7.94 µM. For the same compound, the growth at 0.1 µM (PC-3 [1]) was 92%, the growth at 0.01 µM (SR [2]) was 92% and the growth at 1 µM (UACC-257) was 54%. It also gave a growth at 0.1 µM (SK-MEL-2 [3]) of 101%, a growth at 0.1 µM (U-251) of 96% and a growth at 1 µM (IGROV-1) of 91%. The IC50 (UACC-62) was 1.72 µM, the GI50 (UACC-62; read-out: GI50) was 1.72 µM and the CC50 (UACC-62; [12]) was over 100 µM. The TGI (UACC-62; read-out: TGI) was 93.8 µM, the GI50 (UACC-62; read-out: pGI50 (converted)) was 1.74 µM and the CC50 (UACC-62; [13]) was over 100 µM. For the same compound, the TGI (UACC-62; read-out: pTGI (converted)) was 9.33 µM, the growth at 0.01 µM (A549 [4]) was 103% and the growth at 1 µM (NCI-H522) was 40%. For the same compound, the growth at 1 µM (SR [5]) was 9%, the growth at 100 µM (SK-MEL-28) was -22% and the growth at 100 µM (MDA-MB-435) was 8%. It also gave a growth at 1 µM (PC-3 [6]) of 51%, a growth at 0.1 µM (SK-MEL-5 [7]) of 91% and a growth at 0.1 µM (MDA-MB-468) of 54%. It also gave a growth at 0.01 µM (SK-MEL-5 [8]) of 98%, a growth at 0.01 µM (HT-29) of 93% and a GI50 (NCI-H23; read-out: GI50) of 3.56 µM. It also gave an LC50 (NCI-H23; read-out: LC50) of over 100 µM, a TGI (NCI-H23; read-out: TGI) of 38.8 µM and a GI50 (NCI-H23; read-out: pGI50 (converted)) of 3.63 µM. It also gave an LC50 (NCI-H23; read-out: pLC50 (converted)) of over 100 µM, a TGI (NCI-H23; read-out: pTGI (converted)) of 38.9 µM and a growth at 100 µM (786-0) of -82%. It also gave a growth at 100 µM (HOP-62) of -7%, a growth at 0.01 µM (SN12C) of 94% and a growth at 100 µM (MCF7) of 14%. For the same compound, the growth at 0.01 µM (HL-60(TB)) was 92%, the growth at 0.01 µM (LOX IMVI) was 100% and the growth at 100 µM (SK-MEL-2 [9]) was -30%. The growth at 1 µM (NCI-H322M) was 57%, the GI50 (BT-549; read-out: GI50) was 4.21 µM and the CC50 (BT-549; [12]) was over 100 µM. The TGI (BT-549; read-out: TGI) was over 100 µM, the GI50 (BT-549; read-out: pGI50 (converted)) was 4.17 µM and the CC50 (BT-549; [13]) was over 100 µM. For the same compound, the TGI (BT-549; read-out: pTGI (converted)) was over 100 µM, the growth at 1 µM (A549 [10]) was 52% and the growth at 0.01 µM (PC-3 [11]) was 93%. The GI50 (OVCAR-5; read-out: GI50) was 14.8 µM, the CC50 (OVCAR-5; [12]) was over 100 µM and the TGI (OVCAR-5; read-out: TGI) was 39.6 µM. For the same compound, the GI50 (OVCAR-5; read-out: pGI50 (converted)) was 14.8 µM, the CC50 (OVCAR-5; [13]) was over 100 µM and the TGI (OVCAR-5; read-out: pTGI (converted)) was 39.8 µM.
